Results on 1 molecule are retold here after paper PMC10376420, “Antioxidant, Antidiabetic, and Anti-Obesity Properties of Apple Pulp Extracts (Malus domestica Bork): A Comparative Study of 15 Local and Commercial Cultivars from Spain” (Biology, 2023).

≈ marks a conversion by molar mass, not a printed value.

This experiment concerns the target T1, α-glucosidase from Saccharomyces cerevisiae.
T1 construct: gene MAL12
Kind of experiment: pNPG hydrolysis, absorbance […] nm. Format: biochemical. The note with it: substrate pNPG (50 uL of 3 mM in 200 uL), 37 °C.

In the case of `O=c1c(O)c(-c2ccc(O)c(O)c2)oc2cc(O)cc(O)c12` [Quercetin], the half-inhibitory concentration (IC50) (as a rule, the point on the concentration scale where inhibition reaches its midpoint) is 2.98 ± 0.40 µg/mL (≈ 9.86 µM).
